# Measured values from patent US20260109721A1, “IONIZABLE CATIONIC LIPIDS INCORPORATING SILICON: SYNTHESIS AND LNP FORMULATION” (priority 2023, published 2026).
# Like-named read-outs stand apart in the source and are kept apart here.
# Tests used:
# [1] = system: HepG2 cell line; assay: In vitro toxicity study on HepG2 cell line (resazurin, viability and IC50); type: cell-based, human; conditions: for Viability (%) at different lipid concentrations, mean: HepG2 cells, 48 h post-treatment, relative to ethanol vehicle controls; for IC50: Homo sapiens, read-out: IC50 value, μM (on HepG2 cell)
# Procedure: (§1) The synthesized lipids were tested in term of in vitro transfection efficacy and toxicity on HeLa cells. In order to perform the mentioned biological tests, appropriate LNPs had to be formulated from the synthesized lipids. The formulation technique was different in Method A and B. The particle size, polydispersity index (PDI) and zeta potential of resulting LNPs were determined by means of Dynamic Light Scattering technique (DLS). Prior to biological testing the encapsulation efficiency (EE) of the loaded LNPs was determined by using RiboGreen RNA assay. In case of Method A Luc mRNA while in case of Method B GFP mRNA was transfected into the cells. In parallel with the transfection experiments, toxicity of the investigated LNPs was determined, in case of Method A resazurin assay while in case of Method B MTT assay was used. Additionally, the toxicity of the lipids was investigated on HepG2 cells and IC50 values were determined.
# HepG2 cell line (human hepatocellular carcinoma) were maintained in DMEM medium supplemented with 10% FBS. Cell toxicity measurements were carried out in 384-well microtiter plates with 1000 cells seeded in each well. Test measurements were carried out in triplicate, and control measurements in quadruplicate. After an overnight incubation, the cells were treated with an increasing concentration of the test compounds (6.25, 12.5, 25, 50, 100, 200, 400, 800 μM). […] 48 h post-treatment, following visual inspection under an inverted microscope, cell viability was measured by resazurin assay. Viability of treated cells was calculated relative to that of ethanol vehicle controls. Concentration response curves (CRCs) were obtained and corresponding IC50 values were calculated where applicable and are shown in Table 9.
# Resazurin reagent (Sigma-Aldrich) was dissolved in PBS (pH 7.4) at 0.15 mg/ml concentration, 0.22 μm filtered and aliquoted at −20° C., 10 μl resazurin stock solution was added to wells. After 5 hours incubation at 37° C. under 5% CO2 fluorescence (530 nm excitation/580 nm emission) was recorded on a multimode microplate reader.
# [2] = Encapsulation efficiency of loaded LNPs, RiboGreen RNA assay (Method A); type: physicochemical
# Procedure: as §1
# • 1. Preparation of sample stock solutions: In the top row of the 96-well plate (Row A in the plate), add 297 μL of TE buffer pH 7.4 (see Table 1) to a single well for each sample plus a single well for a PBS blank using a multichannel pipette.
# • 2. Add 3 μL of sample (at 0.5 mg/ml) to these wells for a final volume of 300 μL. Add 3 μL of PBS to the blank well. Pipette to mix. This is your stock solution for each sample. The final RNA concentration of these stock solutions should be approximately 4-7 μg/mL. • 3. mRNA-LNP sample setup: • a. Add 50 μL of TE buffer pH 7.5 to the two wells directly below each sample (Rows B and C in the plate). • b. Add 50 μL of sample stock solution from Row A into the wells in Rows B and C (this assay is run in duplicate. All liquid handling should be done using a multichannel pipette). • c. Add 50 μL of Triton buffer to the wells in Rows D and E (in the plate) below each sample. • d. Add 50 μL of sample stock solution from Row A into the wells in Rows D and E. • 4. RiboGreen RNA standard curve setup: Dilute the RNA standard to produce an RNA stock at a final concentration of 20 μg/mL in TE buffer pH 7.4. The final volume should be 150 μL. Set up a standard curve (in duplicate) as using the RNA stock (20 μg/mL siRNA), TE buffer pH 7.5, and Triton X-100 buffer according the Table 2 and Table 3 below.
# • 5. Once samples and standard curve are plated, incubate the plate at 37° C. for 10 min to lyse mRNA-LNP in the presence of Triton X-100 buffer. • 6. Meanwhile, prepare RiboGreen Solution: Sum the total number of sample wells and standard curve wells. Add three to this number, and multiply the total by 100. This is the total volume, in μL, of RiboGreen Solution needed for this assay. In a 15 mL RNAse-free Falcon tube, dilute the RiboGreen Reagent 1:100 into TE buffer pH 7.5 to the total volume calculated. • 7. Addition of RiboGreen Solution and sample readings: Remove a 96-well plate from 37° C. incubator; let it cool to room temperature as RiboGreen binding is somewhat temperature dependent. Add 100 μL of RiboGreen Solution to each well. Pop any air bubbles with a needle. Read using fluorescent plate reader (excitation=480, emission=525). • 8. Sample analysis: Use the data generated by the RiboGreen standard curve to calculate the concentration of mRNA. Transfection Efficiency with Luciferase-mRNA (Method A)
# [3] = lipid toxicity, HepG2, 48 h post-treatment, resazurin, 6.25-800 μM
# [4] = encapsulation efficiency of mRNA-loaded LNP, Method A, RiboGreen
SMILES,"Viability (%) at different lipid concentrations, mean ([1]; 6.25 μM lipid, resazurin)","Viability (%) at different lipid concentrations, mean ([1]; 12.5 μM lipid, resazurin)","Viability (%) at different lipid concentrations, mean ([1]; 25 μM lipid, resazurin)","Viability (%) at different lipid concentrations, mean ([1]; 50 μM lipid, resazurin)","Viability (%) at different lipid concentrations, mean ([1]; 100 μM lipid, resazurin)","Viability (%) at different lipid concentrations, mean ([1]; 200 μM lipid, resazurin)","Viability (%) at different lipid concentrations, mean ([1]; 400 μM lipid, resazurin)","Viability (%) at different lipid concentrations, mean ([1]; 800 μM lipid, resazurin)","IC50 [1, 3]","EE (%) [2, 4]","IC50 ([1]; HepG2, 48 h)",EE (%) [2]
"CCCCC/C=C\C/C=C\CCCCCCCCOC(CC[C@@H](C)C1CCC2C3CCC4C[C@H](OC)CC[C@]4(C)C3CC[C@@]21C)O[Si](C)(C)OCCCCCCN(CCO)CCO (stereo partly drawn) [Example 52, (23Z,26Z)-3-(2-hydroxyethyl)-13-((3R)-3-((3R,10S,13R)-3-methoxy-10,13-dimethylhexadecahydro-1H-cyclopenta[a]phenanthren-17-yl)butyl)-11,11-dimethyl-10,12,14-trioxa-3-aza-11-siladotriaconta-23,26-dien-1-ol]",101.2%,101.1%,104.2%,120.8%,112.2%,76.7%,5.3%,−0.7%,233 µM,86%,,
"C#CCN(C)CCCCCCO[Si](C)(C)OC(CCCCCCC/C=C\C/C=C\CCCCC)OCCCCCCCC/C=C\C/C=C\CCCCC (centres unmarked) [Example 67, (20Z,23Z)-10-((8Z,11Z)-heptadeca-8,11-dien-1-yl)-N,8,8-trimethyl-N-(prop-2-yn-1-yl)-7,9,11-trioxa-8-silanonacosa-20,23-dien-1-amine]",100.2%,97.1%,99.5%,95.6%,92.6%,24.8%,3.0%,1.7%,,88%,,
"CCCCCCCC/C=C\CCCCCCCCOC(CC[C@@H](C)C1CCC2C3CCC4C[C@H](OC)CC[C@]4(C)C3CC[C@@]21C)O[Si](C)(C)OCCCCCCN(CCO)CCO (stereo partly drawn) [Example 51, (Z)-3-(2-hydroxyethyl)-13-((3R)-3-((3R,10S,13R)-3-methoxy-10,13-dimethylhexadecahydro-1H-cyclopenta[a]phenanthren-17-yl)butyl)-11,11-dimethyl-10,12,14-trioxa-3-aza-11-siladotriacont-23-en-1-ol]",98.6%,94.4%,96.3%,100.0%,109.9%,114.9%,102.9%,98.6%,> 800 µM,89%,,
"CCCCCCCC/C=C\CCCCCCCCOC(=O)C(C)(C)CC(OCCCCCCCC/C=C\CCCCCCCC)O[Si](C)(C)OCCCCCCN(CCO)CCN(CCO)CCCCCCO[Si](C)(C)OC(CC(C)(C)C(=O)OCCCCCCCC/C=C\CCCCCCCC)OCCCCCCCC/C=C\CCCCCCCC (centres unmarked) [Example 96, di((Z)-octadec-9-en-1-yl) 14,17-bis(2-hydroxyethyl)-2,2,6,6,25,25,29,29-octamethyl-4,27-bis(((Z)-octadec-9-en-1-yl)oxy)-5,7,24,26-tetraoxa-14,17-diaza-6,25-disilatriacontanedioate]",98.62%,98.94%,97.36%,96.50%,95.63%,90.16%,67.88%,5.80%,465 µM,89%,,
"CCCCCCCC/C=C\CCCCCCCCOC(=O)C(C)(C)CC(OCCCCCCCC/C=C\CCCCCCCC)O[Si](C)(C)OCCCCCCN1CCCCC1 (centres unmarked) [Example 87, (Z)-octadec-9-en-1-yl 4-((dimethyl((6-(piperidin-1-yl)hexyl)oxy)silyl)oxy)-2,2-dimethyl-4-(((Z)-octadec-9-en-1-yl)oxy)butanoate]",101.2%,97.0%,97.0%,97.8%,97.6%,102.1%,73.7%,35.2%,,89%,625 µM,
"CCCCC/C=C\C/C=C\CCCCCCCCOC(CCCCCCC/C=C\C/C=C\CCCCC)O[Si](C)(C)O[Si](C)(C)CCCCCCN(CCO)CCO (centres unmarked) [Example 82, (24Z,27Z)-14-((8Z,11Z)-heptadeca-8,11-dien-1-yl)-3-(2-hydroxyethyl)-10,10,12,12-tetramethyl-11,13,15-trioxa-3-aza-10,12-disilatritriaconta-24,27-dien-1-ol]",,,,,,,,,,80%,,
"CCCCC/C=C\C/C=C\CCCCCCCCO[Si](C)(C)OC(CCCCCCC/C=C\CCCCCCCC)OCCCN(C)C (centres unmarked) [Example 81, (17Z,20Z)-5-((Z)-heptadec-8-en-1-yl)-N,N,7,7-tetramethyl-4,6,8-trioxa-7-silahexacosa-17,20-dien-1-amine]",,,,,,,,,,,,86%
"CCCCCCCC/C=C\CCCCCCCC(OCC(CCCCCCCC)SCCCCCCCCCC)O[Si](C)(C)OCCCCCCN(CCO)CCO (centres unmarked) [Example 73, (Z)-13-(heptadec-8-en-1-yl)-3-(2-hydroxyethyl)-11,11-dimethyl-16-octyl-10,12,14-trioxa-17-thia-3-aza-11-silaheptacosan-1-ol]",,,,,,,,,,87%,,
"CCCCC/C=C\C/C=C\CCCCCCCCOC(CCCCCCC/C=C\C/C=C\CCCCC)O[Si](C)(C)OCCCCCCN1CCN(CCCCCCO[Si](C)(C)OC(CCCCCCC/C=C\C/C=C\CCCCC)OCCCCCCCC/C=C\C/C=C\CCCCC)CC1 (centres unmarked) [Example 70, 1,4-bis((20Z,23Z)-10-((8Z,11Z)-heptadeca-8,11-dien-1-yl)-8,8-dimethyl-7,9,11-trioxa-8-silanonacosa-20,23-dien-1-yl)piperazine]",,,,,,,,,,81%,,
